In one data set the target is T1, human H3 receptor (Homo sapiens, UniProt Q9Y5N1). Briefly: [35S]GTP-γ-S binding test.
T1 sequence (Q9Y5N1 whole entry): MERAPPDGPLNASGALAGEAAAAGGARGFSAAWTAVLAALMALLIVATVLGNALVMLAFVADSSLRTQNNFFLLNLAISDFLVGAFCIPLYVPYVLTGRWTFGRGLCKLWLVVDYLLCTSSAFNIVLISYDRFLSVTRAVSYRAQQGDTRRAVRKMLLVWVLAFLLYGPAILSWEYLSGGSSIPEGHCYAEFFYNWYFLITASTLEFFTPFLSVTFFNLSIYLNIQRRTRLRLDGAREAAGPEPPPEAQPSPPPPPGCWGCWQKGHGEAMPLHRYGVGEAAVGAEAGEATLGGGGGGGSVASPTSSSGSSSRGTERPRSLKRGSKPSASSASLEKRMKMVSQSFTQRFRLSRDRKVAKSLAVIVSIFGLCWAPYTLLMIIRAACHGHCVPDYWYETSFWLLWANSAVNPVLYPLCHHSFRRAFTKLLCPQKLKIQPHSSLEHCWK
Details: not given
(GTPγS resists hydrolysis and so accumulates on activated G proteins.)
T2 sequence (Q99720 whole entry): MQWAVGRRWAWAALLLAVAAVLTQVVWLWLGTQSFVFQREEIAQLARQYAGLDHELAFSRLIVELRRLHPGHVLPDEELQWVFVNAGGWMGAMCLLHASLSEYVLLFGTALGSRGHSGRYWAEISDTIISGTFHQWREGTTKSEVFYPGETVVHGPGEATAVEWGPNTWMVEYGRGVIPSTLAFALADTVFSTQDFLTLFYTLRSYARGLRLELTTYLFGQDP
Usually IC50 stands for the concentration that gives 50% inhibition. `C[C@@H]1CCCN1CCCOc1ccc(-n2cc(N3CCCC3=O)cn2)cc1` [Example 30, 1-[1-(4-{3-[(2R)-2-methylpyrrolidin-1-yl]propoxy}phenyl)-1H-pyrazol-4-yl]pyrrolidine-2-one] had a half-inhibitory concentration (IC50) of 1.7 nM.

The target in another data set is T1, human H3 receptor. Description: H3 receptor binding test (R(−)-α-methyl[3H]histamine). The conditions noted are these: inhibition of R(−)-α-methyl[3H]histamine (2 nM) binding, membrane of human H3 receptor-expressing CHO-K1 cells. On the set-up: purchased Euroscreen ES-392-M; host or cells: CHO-K1. On the procedure: A membrane preparation of human H3 receptor-expressing CHO-K1 cells (Euroscreen, ES-392-M, 15 μg protein/200 μl), R(−)-α-methyl[^3H]histamine (Amersham, TRK-1017, specific activity: 1.74 TBq/mmol, 2 nM) and a test drug were reacted at room temperature for 1 hour. After completion of the reaction, the reaction mixture was subjected to suction filtration through a 0.3% polyethyleneimine-treated glass filter (GF/C). The glass filter was washed five times with 50 mM Tris-HCl washing solution (pH 7.4) containing 5 mM EDTA. After washing, the glass filter was dried and a scintillator was added thereto, followed by measurement of radioactivity on the filter using a liquid scintillation counter.
A fixed concentration (2 nM) of R(−)-α-methyl[^3H]histamine was reacted under the above conditions with each test drug at various concentrations to obtain an inhibition curve.
Turning to `C[C@@H]1CCCN1CCCOc1ccc(-n2cc(N3CCCC3=O)cn2)cc1` [Example 30, 1-[1-(4-{3-[(2R)-2-methylpyrrolidin-1-yl]propoxy}phenyl)-1H-pyrazol-4-yl]pyrrolidine-2-one], the IC50 is 3.3 nM.

Regarding `C[C@@H]1CCCN1CCCOc1ccc(-n2cc(NC(=O)c3cccnc3)cn2)cc1` [Example 43, N-[1-(4-{3-[(2R)-2-methylpyrrolidin-1-yl]propoxy}phenyl)-1H-pyrazol-4-yl]pyridine-3-carboxamide], the IC50 is 1 nM.

Regarding `C[C@@H]1CCCN1CCCOc1ccc(-n2cc(NC(=O)c3ccncc3)cn2)cc1` [Example 44, N-[1-(4-{3-[(2R)-2-methylpyrrolidin-1-yl]propoxy}phenyl)-1H-pyrazol-4-yl]pyridine-4-carboxamide], the half-maximal inhibitory concentration (IC50) amounted to 0.8 nM.

Consider `C[C@@H]1CCCN1CCCOc1ccc(-n2cc(NC(=O)Cc3ccc(O)cc3)cn2)cc1` [Example 45, 2-(4-hydroxyphenyl)-N-[1-(4-{3-[(2R)-2-methylpyrrolidin-1-yl]propoxy}phenyl)-1H-pyrazol-4-yl]acetamide], for which the half-maximal inhibitory concentration (IC50) amounted to 1.1 nM.

On to `C[C@@H]1CCCN1CCCOc1ccc(-n2cc(NC(=O)Cc3cccnc3)cn2)cc1` [Example 46, N-[1-(4-{3-[(2R)-2-methylpyrrolidin-1-yl]propoxy}phenyl)-1H-pyrazol-4-yl]-2-(pyridin-3-yl)acetamide], for which the half-maximal inhibitory concentration (IC50) turned out to be 1.4 nM.

On to `C[C@@H]1CCCN1CCCOc1ccc(-n2cc(NC(=O)Cc3ccncc3)cn2)cc1` [Example 47, N-[1-(4-{3-[(2R)-2-methylpyrrolidin-1-yl]propoxy}phenyl)-1H-pyrazol-4-yl]-2-(pyridin-4-yl)acetamide], for which the IC50 turned out to be 1.5 nM.

As to `C[C@@H]1CCCN1CCCOc1ccc(-n2cc(NS(C)(=O)=O)cn2)cc1` [Example 48, N-[1-(4-{3-[(2R)-2-methylpyrrolidin-1-yl]propoxy}phenyl)-1H-pyrazol-4-yl]methanesulfonamide], the IC50 was 4.1 nM.

Take `C[C@@H]1CCCN1CCCOc1ccc(-n2cc(N(C)S(C)(=O)=O)cn2)cc1` [Example 49, N-methyl-N-[1-(4-{3-[(2R)-2-methylpyrrolidin-1-yl]propoxy}phenyl)-1H-pyrazol-4-yl]methanesulfonamide]: the 50% inhibitory concentration (IC50) stood at 3.1 nM.

For `CC1CCCN1CCCOc1ccc(-n2cc(NS(=O)(=O)c3ccc(C#N)cc3)cn2)cc1` (stereo not shown) [Example 50, 4-cyano-N-(1-{4-[3-(2-methylpyrrolidin-1-yl)propoxy]phenyl}-1H-pyrazol-4-yl)benzenesulfonamide], the concentration for half-maximal inhibition (IC50) amounted to 31.9 nM.

With `C[C@@H]1CCCN1CCCOc1ccc(-n2cc(NS(=O)(=O)c3cccnc3)cn2)cc1` [Example 51, N-[1-(4-{3-[(2R)-2-methylpyrrolidin-1-yl]propoxy}phenyl)-1H-pyrazol-4-yl]pyridine-3-sulfonamide], the IC50 worked out at 13.7 nM.

Consider `CC1CCCN1CCCOc1ccc(-n2cc(N3C(=O)CCC3=O)cn2)cc1` (stereo not shown) [Example 52, 1-(1-{4-[3-(2-methylpyrrolidin-1-yl)propoxy]phenyl}-1H-pyrazol-4-yl)pyrrolidine-2,5-dione], for which the IC50 worked out at 6 nM.

Take `C[C@@H]1CN(C(=O)c2cnn(-c3ccc(OCCCN4CCC[C@H]4C)cc3)c2)C[C@H](C)O1` [Example 53, (2,6-dimethylmorpholin-4-yl)[1-(4-{3-[(2R)-2-methylpyrrolidin-1-yl]propoxy}phenyl)-1H-pyrazol-4-yl]methanone]: the IC50 was 6.1 nM.

`C[C@@H]1CCCN1CCCOc1ccc(-n2cc(C(=O)N3CCCOCC3)cn2)cc1` [Example 54, [1-(4-{3-[(2R)-2-methylpyrrolidin-1-yl]propoxy}phenyl)-1H-pyrazol-4-yl](1,4-oxazepan-4-yl)methanone]: the 50% inhibitory concentration (IC50) is 4.1 nM.

In the case of `C[C@@H]1CCCN1CCCOc1ccc(-n2cc(C(=O)N3CCN(C)CC3)cn2)cc1` [Example 55, (4-methylpiperazin-1-yl)[1-(4-{3-[(2R)-2-methylpyrrolidin-1-yl]propoxy}phenyl)-1H-pyrazol-4-yl]methanone], the half-inhibitory concentration (IC50) was 5.2 nM.

Regarding `C[C@@H]1CCCN1CCCOc1ccc(-n2cc(C(=O)N3CCCC3)cn2)cc1` [Example 56, [1-(4-{3-[(2R)-2-methylpyrrolidin-1-yl]propoxy}phenyl)-1H-pyrazol-4-yl](pyrrolidin-1-yl)methanone], the IC50 was found to be 2.8 nM.

For `CC1CCN(CCCOc2ccc(-n3cc(C(=O)N4CCOCC4)cn3)cc2)C1` (stereo not shown) [Example 57, (1-{4-[3-(3-methylpyrrolidin-1-yl)propoxy]phenyl}-1H-pyrazol-4-yl)(morpholin-4-yl)methanone], the IC50 was found to be 50.7 nM.

For the molecule `CCC1CCCN1CCCOc1ccc(-n2cc(C(=O)N3CCOCC3)cn2)cc1` (stereo not shown) [Example 58, (1-{4-[3-(2-ethylpyrrolidin-1-yl)propoxy]phenyl}-1H-pyrazol-4-yl)(morpholin-4-yl)methanone], the IC50 was 8.7 nM.

Regarding `O=C(c1cnn(-c2ccc(OCCCN3CCCC3(F)F)cc2)c1)N1CCOCC1` [Example 59, (1-{4-[3-(2,2-difluoropyrrolidin-1-yl)propoxy]phenyl}-1H-pyrazol-4-yl)(morpholin-4-yl)methanone], the IC50 amounted to 1180 nM.

For the molecule `C[C@@H]1CCCN1CCOc1ccc(-n2cc(C(=O)N3CCOCC3)cn2)cc1` [Example 60, [1-(4-{2-[(2R)-2-methylpyrrolidin-1-yl]ethoxy}phenyl)-1H-pyrazol-4-yl](morpholin-4-yl)methanone], the half-maximal inhibitory concentration (IC50) stood at 1560 nM.

For `C[C@@H]1CCCN1CCCCOc1ccc(-n2cc(C(=O)N3CCOCC3)cn2)cc1` [Example 61, [1-(4-{4-[(2R)-2-methylpyrrolidin-1-yl]butoxy}phenyl)-1H-pyrazol-4-yl](morpholin-4-yl)methanone], the IC50 is 39.2 nM.

Turning to `C[C@@H]1CCCN1CCCOc1ccc(-n2cc(C(=O)N3CCOCC3)cn2)cc1F` [Example 62, [1-(3-fluoro-4-{3-[(2R)-2-methylpyrrolidin-1-yl]propoxy}phenyl)-1H-pyrazol-4-yl](morpholin-4-yl)methanone], the IC50 came to 8.7 nM.

Take `Cc1cc(OCCCN2CCC[C@H]2C)ccc1-n1cc(C(=O)N2CCOCC2)cn1` [Example 63, [1-(2-methyl-4-{3-[(2R)-2-methylpyrrolidin-1-yl]propoxy}phenyl)-1H-pyrazol-4-yl](morpholin-4-yl)methanone]: the IC50 was 20.7 nM.

Regarding `C[C@@H]1CCCN1CCCOc1ccc(-n2cc(C(=O)N3CCOCC3)cn2)cc1Br` [Example 64, [1-(3-bromo-4-{3-[(2R)-2-methylpyrrolidin-1-yl]propoxy}phenyl)-1H-pyrazol-4-yl](morpholin-4-yl)methanone], the IC50 is 10 nM.

In the case of `C[C@@H]1CCCN1CCCOc1ccc(-n2cc(C(=O)N3CCOC(O)C3)cn2)cc1` (stereo partly drawn) [Example 65, (2-hydroxymorpholin-4-yl)[1-(4-{3-[(2R)-2-methylpyrrolidin-1-yl]propoxy}phenyl)-1H-pyrazol-4-yl]methanone], the concentration for half-maximal inhibition (IC50) was determined as 5.9 nM.

On to `C[C@@H]1CCCN1CCCOc1ccc(-n2cc(C(=O)N(CCO)CC(=O)O)cn2)cc1` [Example 68, N-(2-hydroxyethyl)-N-{[1-(4-{3-[(2R)-2-methylpyrrolidin-1-yl]propoxy}phenyl)-1H-pyrazol-4-yl]carbonyl}glycine], for which the IC50 came out at 74.8 nM.

Take `C[C@@H]1CCCN1CCCOc1ccc(-n2cc(C(=O)NCCOCCO)cn2)cc1` [Example 69, N-[2-(2-hydroxyethoxy)ethyl]-1-{4-[3-(2-methylpyrrolidin-1-yl)propoxy]phenyl}-1H-pyrazole-4-carboxamide]: the IC50 was found to be 4.6 nM.

A further data set has as its system CHL/IU cells. Description: Cytotoxicity test. Particulars: 48 hours culture, Cell counting kit-8. Format: cell-based, Chinese hamster. On the procedure:
Chinese hamster lung fibroblast-derived CHL/IU cells (DS Pharma Biomedical Co., Ltd., Japan) were seeded, and the medium was replaced on the following day by another medium (MEM+2 mM L-Glutamine+10% CS (all purchased from Invitrogen)) containing a test compound at various concentrations, followed by culture for an additional 48 hours. Using a Cell counting kit-8 (Dojindo Laboratories, Japan), the survival rate of the cells was determined to obtain a curve whose horizontal axis represents the test compound concentration and whose vertical axis represents the survival rate. The curve thus obtained was used to determine the concentration of the test compound at which the survival rate was 50%. As a result, this concentration was 275, 441 and >640 mmol/L for the compounds of Examples 56, 62 and 70, respectively.
In general terms: Tetrazolium dyes change colour on reduction, which living cells bring about.
As for `C[C@@H]1CCCN1CCCOc1ccc(-n2cc(C(=O)N3CCCC3)cn2)cc1` [Example 56, [1-(4-{3-[(2R)-2-methylpyrrolidin-1-yl]propoxy}phenyl)-1H-pyrazol-4-yl](pyrrolidin-1-yl)methanone], the “concentration of the test compound at which the survival rate was 50%” value stood at 275000 µM.

In the case of `C[C@@H]1CCCN1CCCOc1ccc(-n2cc(C(=O)N3CCOCC3)cn2)cc1F` [Example 62, [1-(3-fluoro-4-{3-[(2R)-2-methylpyrrolidin-1-yl]propoxy}phenyl)-1H-pyrazol-4-yl](morpholin-4-yl)methanone], the “concentration of the test compound at which the survival rate was 50%” value worked out at 441000 µM.

A further data set has as its target T2, σ1 receptor (Homo sapiens, UniProt Q99720).
T2 construct: host or cells: Jurkat cells (membrane)
Briefly: [3H](+)pentazocine binding test. Particulars: [3H](+)pentazocine 8 nM, Jurkat cell membrane. The method, then:
Affinity for σ1 receptor was evaluated in a [^3H](+)pentazocine binding test by Cerep, Inc. The σ1 receptor preparation used was the membrane of Jurkat cells. The Jurkat cell membrane was incubated with [^3H](+)pentazocine (8 nM) at 22° C. for 120 minutes.
As a reminder, the inhibition is the percentage by which the read-out fell short of the control. A higher inhibition goes with strong suppression. In turn, `C[C@@H]1CCCN1CCCOc1ccc(-n2cc(C(=O)N3CCCOCC3)cn2)cc1` [Example 54, [1-(4-{3-[(2R)-2-methylpyrrolidin-1-yl]propoxy}phenyl)-1H-pyrazol-4-yl](1,4-oxazepan-4-yl)methanone] gave an inhibition at 10 µM of 39%.

In the case of `C[C@@H]1CCCN1CCCOc1ccc(-n2cc(C(=O)N3CCN(C)CC3)cn2)cc1` [Example 55, (4-methylpiperazin-1-yl)[1-(4-{3-[(2R)-2-methylpyrrolidin-1-yl]propoxy}phenyl)-1H-pyrazol-4-yl]methanone], at 10 µM the inhibition was 3%.
